This note sets out measurements from patent US7888319B2, “Compositions and methods for promoting wound healing and tissue regeneration” (MUSC Foundation for Research Development, priority 2004, dated 2011).

Ends that are not written are not given here.

Experiment [1] has as its system 4 mm long incisional skin injury. Briefly: Incisional skin injury in neonatal mouse. It is filed as in vivo. As to the method: Neonatal mouse pups were desensitized using hypothermia. A 4 mm long incisional skin injury was made using a scalpel through the entire thickness of the skin (down to the level of the underlying muscle) in the dorsal mid line between the shoulder blades. 30 μl of a solution of 20% pluronic (F-127) gel containing either no (control) or dissolved ACT 1 peptide (SEQ ID NO: 2) at a concentration of 60 μM was then applied to the incisional injuries. Control or ACT peptide containing gel was applied subsequently 24 hours after the initial application. No further application of control and ACT peptide containing gel was made after the second application. […] These differences in inflammation, swelling and healing between the control and ACT peptide and control treated injury persisted at the 72 (c, d) and 96 (e, f) hour time points. […] Note that images of the same injury on the same animal are shown at the different time points during the healing time course. Neonatal mouse pups were desensitized using hypothermia. A 4 mm long incisional skin injury was made using a scalpel through the entire thickness of the skin (down to the level of the underlying muscle) in the dorsal mid line between the shoulder blades. 30 μl of a solution of 20% pluronic (F-127) gel containing either no (control) or dissolved ACT 1 peptide (SEQ ID NO:2) at a concentration of 60 μM was then applied to the incisional injuries. Pluronic gel has mild surfactant properties that may aid in the uniform dispersion of the ACT peptide in micelles. More importantly, 20% pluronic gel stays liquid at temperatures below 15° C., but polymerizes at body temperature (37° C.). This property of pluronic gel probably aided in the controlled release of peptide into the tissue at the site of incisional injury, protecting the peptide from break-down in the protease-rich environment of the wound and also enabling active concentrations of the peptide to maintained over prolonged periods. Control or ACT peptide containing gel was applied subsequently 24 hours after the initial application. […]

Experiment [2] relates to 5 mm diameter excisional skin wounds. Put plainly: Small (5 mm) excisional skin wounds in adult mice, ACT 1 to ACT 5. The format is in vivo, mouse. How it is done: Anesthetized adult mice had 2 small (5 mm diameter) excisional skin wounds made by fine surgical scissors on the neck and (upper) back. The boundaries of the injuries were demarcated by a 5 mm wide circular template cut in a plastic sheet. 50-60 μl of a solution of 20% pluronic gel containing either no (control) or one of the ACT peptides (ACT 2-SEQ ID NO: 1, ACT 1-SEQ ID NO:2, ACT 3-SEQ ID NO:3, ACT 4-SEQ ID NO:4, ACT 5-SEQ ID NO:5) dissolved at concentrations of 100 μM were then applied to the excisional injuries. Control or ACT peptide-containing gel was applied subsequently 24 hours after the initial application. No further applications of control and ACT peptide-containing gel were made after the second application. […] Note that the same wound on the same animal is shown at the different time points during the healing time course. Anesthetized adult mice had 2 small (5 mm diameter) excisional skin wounds made by fine surgical scissors on the neck and (upper) back. The boundaries of the injuries were demarcated by a 5 mm wide circular template cut in a plastic sheet. 50-60 μl of a solution of 30% pluronic gel containing either no (control) or one of the ACT peptides (ACT 2—SEQ ID NO:1, ACT 1—SEQ ID NO:2, ACT 3—SEQ ID NO:3, ACT 4—SEQ ID NO:4, ACT 5—SEQ ID NO:5) dissolved at concentrations of 100 μM were then applied to the excisional injuries. Control or ACT peptide-containing gels were applied subsequently 24 hours after the initial application. No further applications of control and ACT peptide-containing gel were made after the second application. […] Note that the same wound on the same animal is shown at the different time points during the healing time course. The area of open wound was measured during the time course using NIH image according to standard protocols on multiple (˜5 mice per control or treatment condition) adult mice. These individual area measurements were then normalized to (i.e., divided by) the average area measured for the control injuries for a given time point, multiplied by 100 to give a % of unclosed wound relative to the control and then plotted against time. A Mann-Whitney U-test was used to statistically assess the effects of ACT peptides over the time course. […] These treatments provided results with significant p values.

As to “RPRPDDLEI (not fully specified (N-terminus)) [ACT 1, carboxy-terminal 9 amino acids of human Cx43; amino terminus biotinylated in tests]”, the “appearance of injury (closure, inflammation, swelling, healing)” value in experiment [1] (60 μM in 20% pluronic (F-127) gel, 30 μl, applied at 0 and 24 hours, by 48 hours, vs gel without peptide) was “significantly more closed, less inflamed, less swollen”. The “differences in inflammation, swelling and healing versus control” value in experiment [1] (60 μM in 20% pluronic gel, 72 and 96 hour time points) is given as “persisted”. Further, the “scar appearance of wound” value in experiment [1] (60 μM in 20% pluronic gel, at 7 days) was “smoother and less scarred appearance”. Besides, the “closure, inflammation, healing and scarring of injuries” value in experiment [2] (100 μM in pluronic gel, 50-60 μl, applied at 0 and 24 hours, 240 hour time course (10 days), vs gel without peptide) is “closed faster, were significantly less inflamed in appearance, healed faster and scarred less”. For the same sequence, in experiment [2] (100 μM, over the time course), the “size of improvement in wound closure over the control, compared among peptides” value is listed as “most pronounced improvements over the control”. The “wound closure rates (area of open wound as % of unclosed wound relative to the control)” value in experiment [2] (100 μM, ~5 mice per condition, Mann-Whitney U-test over the time course) was “significantly improved wound closure rates”.
